As a reminder, the melting point is the temperature, or range, at which the solid turns liquid. A word on the Ki: it is the dissociation constant of the complex between target and ligand, obtained from inhibition or displacement.

Where a name gives a salt, the structure may show the parent alone.

Series [1] addresses T1, human dopamine D3 receptors (Homo sapiens, UniProt P35462).
T1 construct: expressed in transfected cells
Put plainly: Dopamine D3 receptor binding assay ([3H]spiperone, CHO cell membranes). The settings on record: for Ki: human D3 receptors in CHO cells, 0.2 nM [3H]spiperone, mean ± SEM, read-out: Affinity Ki (D3); for Selectivity Ki(D2)/Ki(D3): ratio of Ki(D2) to Ki(D3). How it is done:
(§1) Compounds synthesized in Examples A, B, C and D were assayed to test their affinity for dopamine D3 and D2 receptors.
(§2) METHODS: Dopamine D2S and D3 Receptor Binding Assays
Human D3 receptors stably expressed in CHO cells were used as described by Sokoloff et al. (Sokoloff, P. et al., Eur. J. Pharmacol. 1992, 225, 331-337). The cell line was cultured in Dulbecco's modified Eagle's medium supplemented with 2 mM glutamine, and 10% dialyzed fetal bovine serum, and were grown in an atmosphere of 5% CO2 at 37° C. (Gibco™).
(§3) Human D2S- and D3 receptors expressing cell lines were grown to confluence. The medium was removed, and the cells were washed with 10 ml PBS buffer (140 mM NaCl, 3 mM KCl, 1.5 mM KH2PO4, 8 mM Na2HPO4, pH 7.4) at 4° C. After removing the wash buffer, the cells were scraped from the flasks into 15 ml of ice-cold media, and centrifuged at 3,000 rpm for 10 minutes at 4° C. After centrifugation the medium was removed and the […] resuspended in ice-cold Tris-HCl buffer containing 5 mM MgCl2, pH 7.4 and disrupted with a Polytron and centrifuged at 20,000 rpm, for 30 minutes at 4° C. The pellet was resuspended by sonication in ice-cold Tris-HCl buffer (containing 5 mM MgCl2, pH 7.4), membrane aliquots were stored at −70° C. Determination of membrane protein was carried out by the method of Bradford (Bradford, M. M. Anal Biochem 1976, 72, 248-54).
(§4) Cell membranes containing human D2S and D3 receptors from CHO cells were thawed, rehomogenized with sonication at 4° C. in Tris-HCl, pH 7.4 containing 120 mM NaCl, 5 mM KCl, 2 mM CaCl2 and 1 mM MgCl2 (incubation buffer), and incubated with 0.2 nM [^3H]spiperone (106 Ci·mmol^−1, Amersham Biosciences, Freiburg, Germany), and drug diluted in incubation buffer. Non-specific binding was determined in the presence of 10 μM BP 897 ((Wermuth, C. G. et al. in Chem. Abstr. (Eur. Pat. 0779284, 1997)). Incubations were run at 25° C. for 120 min, and terminated by rapid filtration through PerkinElmer GF/B glass fibre filters (PerkinElmer Life Sciences, Rodgau, Germany) coated in 0.3% polyethylenimine (Sigma-Aldrich, Taufkirchen, Germany) using an Inotech cell harvester (Inotech AG, Dottikon, Switzerland). Unbound radioligand was removed with four washes of 1 ml of ice-cold 50 mM Tris-HCl buffer, pH 7.4, containing 120 mM NaCl. The filters were soaked in 9 ml Beta plate scint scintillator and counted using a PerkinElmer MicroBeta®Trilux scintillation counter (PerkinElmer Life Sciences). Competition binding data were analyzed by the software GraphPad Prism™ (2000, version 3.02, San Diego, Calif., USA), using non-linear least squares fit. For detailed screening the compounds have been tested at seven concentrations in triplicate carrying out three to five separate binding experiments for human dopamine D2S and for human dopamine D3 receptors and expressed as mean±standard error of the mean (SEM). Ki values were calculated from the IC50 values according to Cheng-Prusoff equation (Cheng, Y. C., Prusoff, W. H. Biochem. Pharmacol. 1973, 22, 3099-3108.).

Series [2] addresses T2, recombinant human D2(short) dopamine receptor (Homo sapiens, UniProt P14416).
T2 construct: expressed in transfected cells; host or cells: CHO-D2S cells (per Hayes et al. 1992)
Description: Dopamine D2S receptor binding assay ([3H]spiperone, CHO cell membranes). The settings on record: human D2S receptors in CHO cells, 0.2 nM [3H]spiperone, mean ± SEM; read-out: Affinity Ki (D2). How it is done:
as §1, §2
CHO-D2S cells, expressing the recombinant human D2(short) dopamine receptor gene, (Hayes, G. et al., J. Mol. Endocrinol. 1992, 6, 920-926) were grown in Dulbecco's modified Eagle's medium/nutrient mixture F12 1:1 mixture supplemented with 2 mM glutamine, 10% fetal bovine serum, and 10 μl·ml^−1 penicillin/streptomycin in an atmosphere of 5% CO2 at 37° C. (Gibco™, Karlsruhe, Germany).
as §3, §4

T1 sequence (P35462 whole entry): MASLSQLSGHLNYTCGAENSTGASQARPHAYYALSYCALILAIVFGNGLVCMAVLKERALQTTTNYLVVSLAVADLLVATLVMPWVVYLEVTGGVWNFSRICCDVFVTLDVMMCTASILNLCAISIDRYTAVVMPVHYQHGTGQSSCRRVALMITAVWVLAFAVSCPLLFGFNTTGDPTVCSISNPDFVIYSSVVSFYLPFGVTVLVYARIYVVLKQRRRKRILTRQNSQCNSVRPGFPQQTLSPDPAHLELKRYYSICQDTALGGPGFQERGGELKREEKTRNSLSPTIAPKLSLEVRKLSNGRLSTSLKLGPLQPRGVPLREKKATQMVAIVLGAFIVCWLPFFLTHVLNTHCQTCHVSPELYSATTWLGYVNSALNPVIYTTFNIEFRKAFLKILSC
T2 sequence (P14416 1-414 isoform P14416-2): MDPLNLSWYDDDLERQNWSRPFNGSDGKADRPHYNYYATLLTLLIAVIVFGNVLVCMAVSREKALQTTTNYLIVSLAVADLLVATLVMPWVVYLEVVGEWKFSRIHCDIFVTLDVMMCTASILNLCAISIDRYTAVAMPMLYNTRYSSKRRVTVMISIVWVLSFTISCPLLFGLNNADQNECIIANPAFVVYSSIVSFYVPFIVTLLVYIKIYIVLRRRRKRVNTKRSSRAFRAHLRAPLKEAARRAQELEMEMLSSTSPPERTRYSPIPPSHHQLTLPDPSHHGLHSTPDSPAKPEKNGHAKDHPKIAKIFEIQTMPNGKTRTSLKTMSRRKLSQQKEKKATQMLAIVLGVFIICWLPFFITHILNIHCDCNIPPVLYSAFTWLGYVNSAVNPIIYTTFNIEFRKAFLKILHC

For the compound `CCCN(CCCCNC(=O)N1CCc2ccccc2C1)C1CCc2ncsc2C1` (centres unmarked) (as salt: salt) [Compound 24, 3,4-Dihydro-1H-isoquinoline-2-carboxylic acid {4-[propyl-(4,5,6,7-tetrahydro-benzothiazol-6-yl)-amino]-butyl}-amide], the melting point is 125 °C.

As for `CN(CCCCNC(=O)c1ccc2ccccc2c1)C1CCc2ncsc2C1` (centres unmarked) (as salt: salt) [Compound 3, Naphthalene-2-carboxylic acid {4-[methyl-(4,5,6,7-tetrahydro-benzothiazol-6-yl)-amino]-butyl}-amide], the melting point stood at 122 °C.

For `CC#CCN(CCCCNC(=O)c1ccc2ccccc2c1)C1CCc2ncsc2C1` (centres unmarked) [Compound 8, Naphthalene-2-carboxylic acid {4-[but-2-ynyl-(4,5,6,7-tetrahydro-benzothiazol-6-yl)-amino]-butyl}-amide], in series [1], the inhibition constant (Ki) came out at 108 ± 40 nM and the “Selectivity Ki(D2)/Ki(D3)” value turned out to be 77. Moreover, the inhibition constant Ki in series [2] was 8370 ± 3820 nM.

In the case of `C=CCN(CCCCNC(=O)c1ccc2ccccc2c1)C1CCc2ncsc2C1` (centres unmarked) [Compound 6, Naphthalene-2-carboxylic acid {4-[allyl-(4,5,6,7-tetrahydro-benzothiazol-6-yl)-amino]-butyl}-amide], in series [1], the Ki amounted to 0.95 ± 0.2 nM and the “Selectivity Ki(D2)/Ki(D3)” value is given as 486. In addition, the inhibitory constant (Ki) in series [2] came out at 459 ± 83 nM.

As for `CCCN(CCCCNC(=O)NC1CCCCC1)C1CCc2ncsc2C1` (centres unmarked) [Compound 22, 1-Cyclohexyl-3-{4-[propyl-(4,5,6,7-tetrahydro-benzothiazol-6-yl)-amino]-butyl}-urea], the inhibition constant (Ki) in series [1] is 2.97 ± 1.23 nM; in series [2], 4870 ± 1050 nM. Further, the “Selectivity Ki(D2)/Ki(D3)” value in series [1] is given as 1642.

Regarding `CCCN(CCCCNC(=O)N1CCC(c2ccccc2)CC1)C1CCc2ncsc2C1` (centres unmarked) [Compound 64, 4-phenyl-N-(4-(propyl-(4,5,6,7-tetrahydrobenzo [d]thiazol-6-yl)amino)butyl)piperidine-1-carboxamide], in series [1], the Ki turned out to be 6.29 ± 1.8 nM and the “Selectivity Ki(D2)/Ki(D3)” value was 435. In series [2], the Ki came to 2730 ± 611 nM.

In the case of `CCCN(CCCCNC(=O)C1CCc2ccccc2C1)C1CCc2ncsc2C1` (centres unmarked) [Compound 23, 1,2,3,4-Tetrahydro-naphthalene-2-carboxylic acid {4-[propyl-(4,5,6,7-tetrahydro-benzothiazol-6-yl)-amino]-butyl}-amide], the inhibitory constant (Ki) in series [1] stood at 1.72 ± 0.22 nM; in series [2] it was 2170 ± 566 nM. For the same compound, the “Selectivity Ki(D2)/Ki(D3)” value in series [1] came to 1262.

Consider `CCCN(CCCCNC(=O)C12CC3CC(CC(C3)C1)C2)C1CCc2ncsc2C1` (centres unmarked) [Compound 65], for which, in series [1], the inhibition constant (Ki) turned out to be 0.95 nM and the “Selectivity Ki(D2)/Ki(D3)” value came to 2879. Further, in series [2], the Ki was found to be 2740 ± 1080 nM.

Regarding `CCCN(CCCCNC(=O)N1CC=C(c2ccccc2)CC1)C1CCc2ncsc2C1` (centres unmarked) [Compound 62, 4-Phenyl-3,6-dihydro-2H-pyridine-1-carboxylic acid {4-[propyl-(4,5,6,7-tetrahydrobenzothiazol-6-yl)amino]butyl}amide], in series [1], the Ki is 7.31 ± 2.86 nM and the “Selectivity Ki(D2)/Ki(D3)” value is recorded as 667. In addition, the inhibition constant Ki in series [2] stood at 4880 ± 1890 nM.

Turning to `CCCN(CCCCN1CCN(c2cccc(Cl)c2Cl)CC1)C1CCc2ncsc2C1` (centres unmarked) [Compound 37, {4-[4-(2,3-Dichloro-phenyl)-piperazin-1-yl]-butyl}-propyl-(4,5,6,7-tetrahydro-benzothiazol-6-yl)-amine], in series [1], the Ki was determined as 7.6 ± 1.6 nM and the “Selectivity Ki(D2)/Ki(D3)” value turned out to be 7. The inhibition constant (Ki) in series [2] turned out to be 79.4 ± 49.7 nM.

On to `CN(CCCCNC(=O)c1ccc2ccccc2c1)C1CCc2ncsc2C1` (centres unmarked) [Compound 3, Naphthalene-2-carboxylic acid {4-[methyl-(4,5,6,7-tetrahydro-benzothiazol-6-yl)-amino]-butyl}-amide], for which the values for the inhibition constant Ki in series [1] and in series [2] were 25.4 ± 9.6 nM and 3820 ± 1100 nM, respectively. In series [1], the “Selectivity Ki(D2)/Ki(D3)” value is on record as 151.

With `CCN(CCCCNC(=O)c1ccc2ncsc2c1)C1CCc2ncsc2C1` (centres unmarked) [Compound 14, Benzothiazole-6-carboxylic acid {4-[ethyl-(4,5,6,7-tetrahydro-benzothiazol-6-yl)-amino]-butyl}-amide], in series [1], the Ki came out at 5.61 ± 0.3 nM and the “Selectivity Ki(D2)/Ki(D3)” value was 375. The Ki in series [2] turned out to be 2100 ± 327 nM.

On to `O=C(NCCCCNC1CCc2ncsc2C1)c1nc2ccccc2s1` (centres unmarked) [Compound 63, N-(4-(4,5,6,7-Tetrahydrobenzo[d]thiazol-6-ylamino)butyl)benzo[d]thiazole-2-carboxamide], for which, in series [1], the inhibitory constant (Ki) turned out to be 1900 ± 510 nM and the “Selectivity Ki(D2)/Ki(D3)” value amounted to 13. The inhibitory constant (Ki) in series [2] was 24500 ± 7580 nM.

In the case of `CCCN(CCN1CCN(C(=O)c2ccccc2)CC1)C1CCc2ncsc2C1` (centres unmarked) [Compound 38, [2-(4-Benzoyl-piperazin-1-yl)-ethyl]-propyl-(4,5,6,7-tetrahydro-benzothiazol-6-yl)-amine], in series [1], the Ki was 27.4 ± 14.8 nM and the “Selectivity Ki(D2)/Ki(D3)” value is given as 192. Further, the inhibition constant (Ki) in series [2] came out at 5270 ± 1850 nM.

Regarding `O=C(NCCCCNC1CCc2ncsc2C1)c1ccc2ccccc2c1` (centres unmarked) [Compound 2, Naphthalene-2-carboxylic acid [4-(4,5,6,7-tetrahydro-benzothiazol-6-ylamino)-butyl]-amide], the inhibition constant Ki in series [1] amounted to 147 ± 30 nM; in series [2], 21000 ± 2550 nM. In addition, the “Selectivity Ki(D2)/Ki(D3)” value in series [1] was 143.

Regarding `CCN(CCCCNC(=O)c1ccc2ccccc2c1)C1CCc2ncsc2C1` (centres unmarked) [Compound 4, Naphthalene-2-carboxylic acid {4-[ethyl-(4,5,6,7-tetrahydro-benzothiazol-6-yl)-amino]-butyl}-amide], the Ki in series [1] turned out to be 2.7 ± 0.94 nM; in series [2], 1570 ± 303 nM. In addition, the “Selectivity Ki(D2)/Ki(D3)” value in series [1] was determined as 581.

In the case of `CCCN(CCCN1CCN(c2cccc(Cl)c2Cl)CC1)C1CCc2ncsc2C1` (centres unmarked) [Compound 36, {3-[4-(2,3-Dichloro-phenyl)-piperazin-1-yl]-propyl}-propyl-(4,5,6,7-tetrahydro-benzothiazol-6-yl)-amine], in series [1], the inhibition constant Ki turned out to be 35 ± 22 nM and the “Selectivity Ki(D2)/Ki(D3)” value came out at 4. In addition, the inhibitory constant (Ki) in series [2] came out at 129 ± 36 nM.

`CCN(CCN1CCc2ccccc2C1)C1CCc2ncsc2C1` (centres unmarked) [Compound 31, [2-(3,4-Dihydro-1H-isoquinolin-2-yl)-ethyl]-ethyl-(4,5,6,7-tetrahydro-benzothiazol-6-yl)-amine]: in series [1], the Ki came to 26.5 ± 4.4 nM and the “Selectivity Ki(D2)/Ki(D3)” value was determined as 35. Further, the Ki in series [2] is 929 ± 103 nM.

Take `CCCN(CCCCNC(=O)c1ccc2ncsc2c1)C1CCc2ncsc2C1` (centres unmarked) [Compound 15]: the results for the Ki in series [1] and in series [2] were 0.65 ± 0.09 nM and 347 ± 133 nM, respectively. Also, the “Selectivity Ki(D2)/Ki(D3)” value in series [1] is 531.

In the case of `CCN(CCCCNC(=O)c1cc2ccccc2s1)C1CCc2ncsc2C1` (centres unmarked) [Compound 12, Benzo[b]thiophene-2-carboxylic acid {4-[ethyl-(4,5,6,7-tetrahydro-benzothiazol-6-yl)-amino]-butyl}-amide], in series [1], the Ki stood at 2.92 ± 0.48 nM and the “Selectivity Ki(D2)/Ki(D3)” value is 856. Moreover, in series [2], the Ki was 2500 ± 463 nM.

Consider `CN(CCCCNC(=O)c1cc2ccccc2s1)C1CCc2ncsc2C1` (centres unmarked) [Compound 11, Benzo[b]thiophene-2-carboxylic acid {4-[methyl-(4,5,6,7-tetrahydro-benzothiazol-6-yl)-amino]-butyl}-amide], for which, in series [1], the Ki is 52.6 ± 5.1 nM and the “Selectivity Ki(D2)/Ki(D3)” value is reported as 65. For the same compound, the inhibition constant (Ki) in series [2] was 3390 ± 388 nM.

The values above are taken from patent US8389555B2, “Medicaments” (Motac Neuroscience Limited, priority 2007, dated 2013).
